Measured values as given in patent publication US7368130B2, “Microparticles” (The Board of Trustees of the University of Illinois, priority 2000, dated 2008).
Entries after “also recorded” stand apart in the source; their conditions may differ.

Assays:
[1] = Release of rhodamine B from PLGA microspheres during incubation in PBS; format: physicochemical; details: 37° C.
Procedure: (§1) The rhodamine B, in its free base form, was dissolved in PLGA/ethyl acetate solutions at theoretical loadings of 1, 3 and 5%(mass drug/mass polymer). Microspheres of uniform 35, 50 and 65 μm diameters were fabricated, hardened and collected using the procedures described in the above examples. The presence of rhodamine had no observable effect on particle uniformity. Encapsulation of rhodamine (˜70% efficiency) was confirmed by fluorescence microscopy (FIG. 6, right). The rhodamine B is released from the spheres over the course of 7-10 days of incubation in PBS and 37° C.

[2] = Encapsulation of rhodamine B in PLGA microspheres, confirmed by fluorescence microscopy; format: physicochemical; details: PLGA microspheres from PLGA/ethyl acetate solution, theoretical loadings 1, 3 and 5%
Procedure: as §1

time over which rhodamine B is released from the spheres ([1]; PLGA microspheres of uniform 35, 50 and 65 μm diameters, theoretical loadings 1, 3 and 5% (mass drug/mass polymer), incubation in PBS): 7 to 10 days
encapsulation efficiency [2]: ~70%
SMILES: CCN(CC)c1ccc2c(-c3ccccc3C(=O)O)c3ccc(=[N+](CC)CC)cc-3oc2c1 [rhodamine B]
release rate ([1]; dependence on sphere size and drug loading, PLGA microspheres in PBS): faster when spheres were smaller (not shown) or contained more drug; also recorded: faster when spheres contained more drug
